Reference: US20230242496A1, “SOX11 INHIBITORS FOR TREATING MANTLE CELL LYMPHOMA” (Icahn School of Medicine At Mount Sinai, priority 2020, published 2023)

Experiments:
(His)6-SOX11-DBD protein = molecular target: T1, (His)6-SOX11-DBD protein (Homo sapiens, UniProt P35716); assay: Surface Plasmon Resonance (SPR) assay; format: binding; settings: immobilized recombinant (His)6-SOX11-DBD, 25° C., compounds 5-40 μM, mean of three experiments
T1 construct: Recombinant (His)6-SOX11-DBD protein was immobilized
T1 sequence (P35716 49-117 limits assumed): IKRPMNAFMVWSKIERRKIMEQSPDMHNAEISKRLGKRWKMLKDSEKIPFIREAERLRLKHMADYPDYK
Description: Surface Plasmon Resonance (SPR) Assay
Recombinant (His)6-SOX11-DBD protein was immobilized at a flow rate of 10 μl/min for 180 seconds to the right channel of a gold-coated SCR NiHC200M sensor chip (XanTec bioanalytics) placed in a Reichert 2SPR instrument (Reichert Technologies). The left channel, without immobilized protein, was used as a reference. […] Compounds flowed sequentially from the left to the right channel over the prepared sensor chip surface. 120 seconds association phase with each compound concentration was followed by 300 seconds dissociation phase with the assay buffer alone. The ka, kd, and KD values were determined from the sensograms for at least 3 concentrations of each compound by curve fitting the data using Reichert's TraceDrawer software. The mean KD value for each compound was calculated from three separate experiments.

Jeko-1 (SOX11+) = assay: Cell viability assay (CellTiter-Blue resazurin reduction); format: cell-based; settings: JeKo-1 cells; for IC50: 0-40 μM
Description: Cell viability was determined by a fluorometric resazurin reduction method (CellTiter-Blue; Promega, Madison, Wis.) following the manufacturer's instructions. […] Cells were incubated for 72 hours. After incubation, 20 μl CellTiter-Blue Cell was added to each well and incubated for another 2 hours. […] The number of viable cells in each treated well was calculated, based on the linear least squares regression of the standard curve (OD vs. cell concentration). The viability of cells treated with compounds was normalized to the viability of cells treated with 0.2% Dimethyl sulfoxide (DMSO). Cell counts were confirmed with Trypan Blue Exclusion Assay on the Countess automated cell counter (Invitrogen) according to the manufacturer's specifications. The average and mean standard deviation were calculated from three separate experiments. IC50 values were calculated using the GraphPad Prism (version 4.00) based on a sigmoidal dose-response equation.

[1] = Homo sapiens, JeKo-1, 72 h, 20 μM compound, normalized to 0.2% DMSO

| Kd ((His)6-SOX11-DBD protein) | Structure (SMILES) | IC50 (Jeko-1 (SOX11+); Homo sapiens, JeKo-1, 72 h) | viability at 20 µM (Jeko-1 (SOX11+); [1]) | Jeko-1 Viability at 20 μM (%) (Jeko-1 (SOX11+); 20 μM compound, 72 hours, normalized to 0.2% DMSO, 20 µM) | IC50 (Jeko-1 (SOX11+); 72 hours) |
| --- | --- | --- | --- | --- | --- |
| 0.629 µM | CC1Sc2ccc(C(=O)Nc3cccc(S(=O)(=O)Nc4cccc(F)c4)c3)cc2NC1=O (centres unmarked) | 10 µM | 13.1% |  |  |
| 48.4 µM | O=C(Nc1ccc(S(=O)(=O)Nc2ccccc2)cc1)c1ccc2cn[nH]c2c1 | 10 µM | 17.2% |  |  |
| 6.93 µM | CN1C(=O)CSc2ccc(C(=O)Nc3ccc(CN4CCCCCC4)cc3)cc21 | > 20 µM | 102% |  |  |
| 0.861 µM | CC1Sc2ccc(C(=O)Nc3ccc(S(=O)(=O)Nc4ccc(Cl)cc4)cc3)cc2NC1=O (centres unmarked) | 15 µM | 9.99% |  |  |
| 346 µM | CC1Sc2ccc(C(=O)Nc3cccc(S(=O)(=O)N4CCCC4)c3)cc2N(C)C1=O (centres unmarked) |  | 13.9% |  |  |
| 17.5 µM | CC1Sc2ccc(C(=O)Nc3ccc(S(=O)(=O)N4CCNCC4)cc3)cc2NC1=O (centres unmarked) | > 20 µM | 92.4% |  |  |
| 13.8 µM | CC1Sc2ccc(C(=O)Nc3ccc(S(=O)(=O)N4CCCC4)c(Cl)c3)cc2NC1=O (centres unmarked) |  | 8.93% |  |  |
| 5.51 µM | CC1Sc2ccc(C(=O)Nc3ccc(S(=O)(=O)Nc4ccncn4)cc3)cc2NC1=O (centres unmarked) | > 20 µM | 106% |  |  |
| 85 µM | CC1Sc2ccc(C(=O)Nc3cccc(S(=O)(=O)N4CCOCC4)c3)cc2NC1=O (centres unmarked) | 8 µM | 30.8% |  |  |
| 38.6 µM | O=C1CSc2ccc(C(=O)Nc3cccc(S(=O)(=O)N4CCCC4)c3)cc2N1 | 20 µM | 45.4% |  |  |
| 38 µM | CC1Sc2ccc(C(=O)Nc3ccc(S(=O)(=O)Nc4ccccc4)cc3)cc2NC1=O (centres unmarked) [drawing 468] |  |  | 0.83% | 12.5 µM |
| 30.9 µM | CCN(CC)S(=O)(=O)c1ccc(NC(=O)c2ccc3c(c2)NC(=O)C(C)S3)cc1 (centres unmarked) | 7.5 µM | 0.6% |  |  |
| 7.91 µM | Cc1ccccc1COc1ccc(NC(=O)c2ccc3c(c2)NC(=O)C(C)S3)cc1 (centres unmarked) |  | 99.2% |  |  |
| 69.5 µM | CC1Sc2ccc(C(=O)Nc3cccc(S(=O)(=O)N(C)C)c3)cc2NC1=O (centres unmarked) | 8.5 µM | 1.43% |  |  |
| 100 µM | CC1Sc2ccc(C(=O)Nc3ccc(S(=O)(=O)NC4CCNCC4)cc3)cc2NC1=O (centres unmarked) | > 20 µM | 80.7% |  |  |
| 1.98 µM | O=C(Nc1cccc(S(=O)(=O)N2CCCC2)c1)c1ccc2c(c1)CCCS2 |  | 27.1% |  |  |
| 1.17 µM | CC1Sc2ccc(C(=O)Nc3ccc(CN(C)C(C)C)cc3)cc2NC1=O (centres unmarked) |  | 105% |  |  |
| 2.22 µM | Nc1cc(C(=O)Nc2ccc(S(=O)(=O)Nc3ccccc3)cc2)ccc1/C=C\C(=O)O | 9 µM | 12.4% |  |  |
| 71.5 µM | CC1Sc2ccc(C(=O)Nc3ccc(CN4CCCC4)cc3)cc2NC1=O (centres unmarked) |  | 104% |  |  |
| 3.37 µM | Cc1ccc(NC(=O)c2ccc3c(c2)NC(=O)CS3)cc1S(=O)(=O)Nc1cccc(Cl)c1 | 10 µM | 26.3% |  |  |
| 59.7 µM | CC1Sc2ccc(C(=O)Nc3cccc(S(=O)(=O)Nc4ccc(N)cc4)c3)cc2NC1=O (centres unmarked) | > 20 µM | 59.7% |  |  |
| 3.1 µM | CC1Sc2ccc(C(=O)Nc3ccc(S(=O)(=O)Nc4ccccc4)cc3Cl)cc2NC1=O (centres unmarked) | < 20 µM | 36.2% |  |  |
| 2.65 µM | CCN(c1ccccc1)S(=O)(=O)c1cccc(NC(=O)c2ccc3snnc3c2)c1 | 8.5 µM | 4.86% |  |  |
| 3.15 µM | CC1Sc2ccc(C(=O)Nc3cccc(S(=O)(=O)Nc4cccc(Cl)c4)c3)cc2NC1=O (centres unmarked) | < 20 µM | 28.8% |  |  |
| 5.41 µM | Cc1ccccc1COc1cccc(NC(=O)c2ccc3c(c2)NC(=O)C(C)S3)c1 (centres unmarked) |  | 110% |  |  |
| 141 µM | CN1C(=O)CSc2ccc(C(=O)Nc3ccc(S(C)(=O)=O)c(Cl)c3)cc21 |  |  |  |  |
| 21.7 µM | CN(c1ccccc1)S(=O)(=O)c1ccc(NC(=O)c2ccc3c(c2)CCCS3)cc1 |  |  |  |  |

| Structure (SMILES) | Kd ((His)6-SOX11-DBD protein) | IC50 (Jeko-1 (SOX11+); Homo sapiens, JeKo-1, 72 h) | viability at 20 µM (Jeko-1 (SOX11+); [1]) | Jeko-1 Viability at 20 μM (%) (Jeko-1 (SOX11+); 20 μM compound, 72 hours, normalized to 0.2% DMSO, 20 µM) | IC50 (Jeko-1 (SOX11+); 72 hours) |
| --- | --- | --- | --- | --- | --- |
| CC1Sc2ccc(C(=O)Nc3cccc(OCc4ccc(OS(=O)(=O)F)cc4)c3)cc2NC1=O (centres unmarked) | 19.1 µM |  |  |  |  |
